Columns and labels:
[1] = molecular target: T1, Tyrosine-protein kinase ZAP-70 (Homo sapiens, UniProt P43403); assay: Inhibition of ZAP-70 (unknown origin) using ULight-TK peptide as substrate incubated for 120 mins in presence of ATP by Lance Ultra Kinase assay
T1 sequence (P43403 whole entry): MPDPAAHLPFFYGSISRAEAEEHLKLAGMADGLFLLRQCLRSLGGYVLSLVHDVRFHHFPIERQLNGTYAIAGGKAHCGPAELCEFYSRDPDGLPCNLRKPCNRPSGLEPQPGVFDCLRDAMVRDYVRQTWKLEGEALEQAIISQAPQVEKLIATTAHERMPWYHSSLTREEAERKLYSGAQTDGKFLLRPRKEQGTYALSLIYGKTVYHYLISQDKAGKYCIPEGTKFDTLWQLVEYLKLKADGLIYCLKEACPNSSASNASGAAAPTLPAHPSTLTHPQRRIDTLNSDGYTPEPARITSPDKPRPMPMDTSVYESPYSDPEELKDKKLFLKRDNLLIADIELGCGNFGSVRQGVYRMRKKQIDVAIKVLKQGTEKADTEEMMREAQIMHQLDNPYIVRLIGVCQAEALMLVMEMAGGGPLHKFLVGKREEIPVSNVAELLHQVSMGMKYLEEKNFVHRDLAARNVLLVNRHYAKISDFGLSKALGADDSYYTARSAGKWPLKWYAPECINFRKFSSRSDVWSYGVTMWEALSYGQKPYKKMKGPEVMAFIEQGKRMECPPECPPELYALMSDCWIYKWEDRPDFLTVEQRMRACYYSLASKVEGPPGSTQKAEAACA

Splenocyte = assay: Immunosuppressive activity in anti-CD3/CD28 stimulated BALB/c mouse Splenocyte assessed as reduction in IFN-gamma cytokine level incubated for 48 hrs by ELISA assay; assay type: functional, cell-based
[2] = molecular target: T2, Bone morphogenetic protein receptor type-2 (Homo sapiens) (UniProt Q13873); assay: Inhibition of BMPR2 (unknown origin) at 1 uM relative to control
T2 sequence (whole entry): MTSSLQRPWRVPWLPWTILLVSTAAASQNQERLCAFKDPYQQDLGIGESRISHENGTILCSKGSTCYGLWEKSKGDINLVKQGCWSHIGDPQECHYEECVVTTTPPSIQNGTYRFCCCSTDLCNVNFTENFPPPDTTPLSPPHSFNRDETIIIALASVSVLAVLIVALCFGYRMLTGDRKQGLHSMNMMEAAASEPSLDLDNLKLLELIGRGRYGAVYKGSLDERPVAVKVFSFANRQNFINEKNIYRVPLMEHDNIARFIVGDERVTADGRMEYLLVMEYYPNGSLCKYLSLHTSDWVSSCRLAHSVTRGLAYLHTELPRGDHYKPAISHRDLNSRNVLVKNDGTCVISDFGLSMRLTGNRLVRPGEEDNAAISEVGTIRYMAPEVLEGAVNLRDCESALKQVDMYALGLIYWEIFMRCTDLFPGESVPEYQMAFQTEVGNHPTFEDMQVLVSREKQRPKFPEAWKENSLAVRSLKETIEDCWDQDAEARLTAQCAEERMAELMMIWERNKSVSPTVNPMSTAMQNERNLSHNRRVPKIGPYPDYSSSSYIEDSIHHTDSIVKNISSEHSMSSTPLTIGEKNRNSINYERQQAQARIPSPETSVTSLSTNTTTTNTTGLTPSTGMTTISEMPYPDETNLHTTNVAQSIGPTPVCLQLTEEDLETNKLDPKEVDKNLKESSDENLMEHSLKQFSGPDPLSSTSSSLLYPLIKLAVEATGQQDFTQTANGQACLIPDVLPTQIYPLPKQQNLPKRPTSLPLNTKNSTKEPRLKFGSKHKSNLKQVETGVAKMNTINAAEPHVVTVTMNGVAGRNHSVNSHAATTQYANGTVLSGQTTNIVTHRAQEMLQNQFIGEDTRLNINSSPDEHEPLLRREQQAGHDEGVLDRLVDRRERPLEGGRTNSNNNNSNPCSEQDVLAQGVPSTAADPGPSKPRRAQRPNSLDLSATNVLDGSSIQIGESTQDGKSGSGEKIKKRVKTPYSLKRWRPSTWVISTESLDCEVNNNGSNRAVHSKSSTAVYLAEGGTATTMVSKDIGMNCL

- IC50 [1]: 14.6 nM
- inhibition [2]: > 90%
Compound: C=CC(=O)Nc1cc(CNc2nc(Nc3ccc(N4CCOCC4)c(OC)c3)c(C(N)=O)c3nccn23)ccc1Cl
- Activity (Splenocyte): Dose-Dependent Effect

Reference: ChEMBL document CHEMBL5365427, “Discovery and Structural Optimization of Covalent ZAP-70 Kinase Inhibitors against Psoriasis” (J Med Chem, 2023)
